Reference: patent publication US12692274B2, “Tetrahydroisoquinoline derivatives for the treatment of red blood disorders and inflammatory diseases” (Sanofi, priority 2020, dated 2026)
“And” between values parts separate entries of the source, which are not always exact repeats. Identical values can stand only once.

Assays:
[1] = tested on: NQO1 activation in BEAS-2B cells; assay: BEAS-2B cellular MTT assay of NQO1 activation, 0% HSA; assay type: cell-based
Outline: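 For the 0% HSA condition, cells were seeded into collagen plates in HSA-free medium. Culture was BEAS-2B in BEBM plus BEGM SingleQuots lacking GA-1000, held under 70% confluence, at a seeding density reaching 95-100% confluence by 48 h.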

[2] = tested on: NQO1 activation in BEAS-2B cells; assay: BEAS-2B cellular MTT assay of NQO1 activation, 0.3% HSA; assay type: cell-based
Outline: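 MTT read-out in BEAS-2B cells grown in BEBM with SingleQuots, no GA-1000, kept below 70% confluence; plates coated with collagen, with 0.3% or 0% HSA medium, seeded to 95-100% confluency at 48 h, 37 °C, 5% CO2.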

[3] = target: HIS-Keap1 full length / Biotin-Nrf2 (16-mer) (Homo sapiens, UniProt Q14145); assay: biochemical
[4] = Homo sapiens, serum free, read-out: BEAS EC50 (nM) serum free
[5] = Homo sapiens, BEAS+, read-out: BEAS+ EC50
[6] = Homo sapiens, Serum Free W, read-out: BEAS EC50 (nM) Serum Free W
[7] = Serum Free W, read-out: BEAS EC50 (nM) Serum Free W
[8] = BEAS+ W, read-out: BEAS+ W EC50
[9] = Homo sapiens, BEAS+ W, read-out: BEAS+ W EC50

Chain of HIS-Keap1 full length / Biotin-Nrf2 (16-mer) (Q14145 whole entry): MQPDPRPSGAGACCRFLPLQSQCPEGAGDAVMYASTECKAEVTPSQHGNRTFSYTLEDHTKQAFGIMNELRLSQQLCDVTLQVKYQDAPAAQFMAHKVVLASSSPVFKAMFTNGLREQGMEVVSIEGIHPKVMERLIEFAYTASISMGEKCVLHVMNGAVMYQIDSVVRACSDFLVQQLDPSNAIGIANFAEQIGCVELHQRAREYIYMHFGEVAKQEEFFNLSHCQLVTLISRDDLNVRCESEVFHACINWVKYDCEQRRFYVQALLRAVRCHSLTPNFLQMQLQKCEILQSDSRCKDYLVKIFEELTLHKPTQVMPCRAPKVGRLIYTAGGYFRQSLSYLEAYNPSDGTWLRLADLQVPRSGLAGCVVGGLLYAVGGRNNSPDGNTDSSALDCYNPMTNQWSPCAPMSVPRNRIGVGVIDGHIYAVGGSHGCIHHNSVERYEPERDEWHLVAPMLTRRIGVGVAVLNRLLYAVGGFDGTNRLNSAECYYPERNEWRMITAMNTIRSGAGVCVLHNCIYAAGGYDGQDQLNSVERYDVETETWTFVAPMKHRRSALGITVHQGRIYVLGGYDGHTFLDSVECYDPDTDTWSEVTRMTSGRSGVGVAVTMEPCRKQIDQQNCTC

SMILES	EC50 [1, 4] [nM]	EC50 [2, 5] [nM]	IC50 [3]	EC50 ([1]; serum free, read-out: BEAS EC50 (nM) serum free) [nM]	EC50 [1, 6] [nM]	EC50 [1, 7] [nM]	EC50 [2, 8]	EC50 [2, 9] [nM]
Cc1c2ccc3c1nnn3CCCCCCOc1ccc(c(F)c1F)C(=O)N1CCc3ccc(cc3C1)C2CC(=O)O (stereo not drawn) [Compound 318]	20.4	59.2	0.8 nM	–	–	–	–	–
O=C(O)CC1c2ccc(nc2)OCCCCCCOc2ccc(cc2)C(=O)N2CCc3ccc1cc3C2 (stereo not drawn) [Compound 319]	432	1430	99 nM and 106 nM	–	–	–	–	–
O=C(O)CC1c2ccc3c(c2)CN(CC3)C(=O)c2ccc(c(F)c2F)OCCCCCCn2nnc3cc1ccc32 (stereo not drawn) [Compound 320]	332	462	< 0.1 nM	–	–	–	–	–
O=C(O)CC1c2ccc3c(c2)CN(CC3)C(=O)c2c(F)cc(cc2F)OCCCCCCn2nnc3cc1ccc32 (stereo not drawn) [Compound 321]	75.7	88.9	0.4 nM and 0.1 nM	–	–	–	–	–
O=C(O)CC1c2ccc3c(c2)CN(CC3)C(=O)c2ccc(cc2F)OCCCCCCn2nnc3cc1ccc32 (stereo not drawn) [Compound 322]	176	231	0.8 nM and 1 nM	–	–	–	–	–
C[C@H](C(=O)O)[C@H]1c2ccc3c(c2)CN(CC3)C(=O)c2ccc(cc2)OCCCCCCn2nnc3cc1ccc32 [Compound 323]	135	386	1.2 nM and 1.8 nM	–	–	–	–	–
C[C@@H](C(=O)O)[C@H]1c2ccc3c(c2)CN(CC3)C(=O)c2ccc(cc2)OCCCCCCn2nnc3cc1ccc32 [Compound 324]	6	18.1	0.4 nM	–	–	–	–	–
CC(C(=O)O)C1c2ccc3c(c2)CN(CC3)C(=O)c2ccc(cc2)OCCCCCn2nnc3cc1ccc32 (stereo not drawn) [Compound 325]	2.9	4	< 0.1 nM	–	–	–	–	–
Cc1cc2ccc1C(=O)N1CCc3ccc(cc3C1)[C@@H](CC(=O)O)c1ccc3c(c1)nnn3CCCCCCO2 [Compound 327]	52.9	179	0.8 nM and 2.3 nM	46.9	–	–	–	–
Cc1c2ccc3c1nnn3CCCCCOc1ccc(cc1)C(=O)N1CCc3ccc(cc3C1)C2CC(=O)O (stereo not drawn) [Compound 331]	47.4	40.3	1.7 nM and 4.3 nM and 2.6 nM and 10.9 nM	–	–	–	–	–
Cc1cc2ccc1C(=O)N1CCc3ccc(cc3C1)C(CC(=O)O)c1ccc3c(c1)nnn3CCCCCCO2 (stereo not drawn) [Compound 332]	27.4	62.7	< 0.1 nM	–	–	–	–	–
Cc1cc2ccc1C(=O)N1CCc3ccc(cc3C1)C(CC(=O)O)c1ccc3c(nnn3CCCCCO2)c1C (stereo not drawn) [Compound 335]	35	36.1	2.5 nM and 2.9 nM and 6.4 nM and 1.3 nM	–	–	–	–	–
O=C(O)CC1c2ccc3c(c2)CN(CC3)C(=O)c2ccc(c3ccccc23)OCCCCCn2nnc3cc1ccc32 (stereo not drawn) [Compound 337]	1890	2540	0.7 nM and 0.8 nM	–	–	–	–	–
Cc1cc2ncc1[C@H](CC(=O)O)c1ccc3c(c1)CN(CC3)C(=O)c1ccc(cc1)CCOCCO2 [Compound 350]	–	–	11.5 nM and 10.1 nM and 9.8 nM and 10.2 nM	–	161	145	426 nM	276
Cc1cc2ncc1[C@@H](CC(=O)O)c1ccc3c(c1)CN(CC3)C(=O)c1ccc(cc1)CCOCCO2 [Compound 351]	–	–	649 nM and 619 nM and 401 nM and 416 nM	–	> 1000	1780	2880 nM and 2800 nM	3740
Cc1c2cnc3c1nnn3CCCC/C=C/Cc1ccc(cc1)C(=O)N1CCc3ccc(cc3C1)[C@H]2CC(=O)O [Compound 352]	–	–	6.8 nM and 7.7 nM	–	21.9	33	481 nM	417
Cc1c2cnc3c1nnn3CCCC/C=C/Cc1ccc(cc1)C(=O)N1CCc3ccc(cc3C1)[C@@H]2CC(=O)O [Compound 353]	–	–	0.5 nM	–	16.8	19.1	109 nM	72.3
Cc1c2cnc3c1nnn3CCCCCc1cccc(c1)C(=O)N1CCc3ccc(cc3C1)C2CC(=O)O (stereo not drawn) [Compound 354]	–	–	20.1 nM and 13.8 nM	–	> 1000	–	2130 nM	2700
Cc1c2cnc3c1nnn3CCCCCCc1cccc(c1)C(=O)N1CCc3ccc(cc3C1)C2CC(=O)O (stereo not drawn) [Compound 355]	–	–	9.1 nM and 9.3 nM	–	810	1300	3860 nM	4700
